From patent publication US8008329B2 (Dong Wha Pharmaceutical Co., Ltd., priority 2008, dated 2011)
Marks after values point to notes of the source that are not given here.

Tested on: osteoclast differentiation
Experiment: Osteoclast differentiation in co-culture of mouse bone marrow cells and ST2 cells, TRAP staining (Examples 8-9)
Type: cell-based
Settings: for % number of osteoclast (vs. solvent control group): 0.1 μM each, day 7; for activity at 0.1 µM: Mus musculus, Osteoclast, 168 h, Individual treatment (compounds), day 7, read-out: % number of osteoclast (vs. solvent control group)
Experimental: The differentiation of osteoclast from mouse bone marrow cells was induced by using co-culture system, and inhibitory effect of the drug on osteoclast differentiation was evaluated by treatment of single or combination formulation. Co-culture was performed using mouse bone marrow cells and ST cells of bone marrow-derived stromal cell.
Femora and tibia were aseptically ectomized from 6˜8 week-old male ddY mice to harvest bone marrow cells by a general method using a syringe. The red blood cells were removed from the bone marrow cells, followed by centrifugation. The bone marrow cells were suspended in α-MEM medium supplemented with 10% fetal bovine serum, and the numbers of the eukaryotic cells in the harvested bone marrow cells were counted and then immediately used for a co-culture system.
ST2 cells (RIKEN Cell Bank, Tsukuba, Japan) were cultured in α-MEM medium supplemented with 10% fetal bovine serum until confluent. Then, these cells were diluted to a desired cell number, and used for the experiment.
The bone marrow cells (1×10^5 cells/well) and ST2 cells (3,000 cells/well) prepared in the above were plated in a 96-well plate using α-MEM medium supplemented with 10% fetal bovine serum. At this time, differentiation factors, 1α,25-dihydroxyvitamin D3 (10^−8 M, hereinbelow, referred to as vitamin D3) and dexamethasone (10^−8 M), were co-added to the medium to induce osteoclast differentiation. The medium was replaced with fresh media containing the differentiation factors every 2 to 3 days.
After 7 days, when multinucleated osteoclasts were observed, the medium was removed from the wells, and then the cells were fixed with PBS containing 10% Formalin. Tartrate-Resistant Acid Phosphatase (hereinbelow, referred to as TRAP) was used as a marker to measure the mature osteoclast in consideration of its characteristics showing a positive reaction to a TRAP staining solution. The TRAP staining solution was prepared in such the manner that a substrate, naphtol AS-MS phosphate and a coloring agent (Fast Red Violet LB salt) were dissolved in N,N-dimethylformamide. A 0.1 N NaHCO3 buffer solution containing 50 mM tartaric acid was added thereto, and the mixture was stored at a refrigerator prior to use as a staining solution. The osteoclasts with 6-7 or more nuclei showing a TRAP-positive reaction were counted under a microscope.
Alendronic acid was dissolved in distilled water at a concentration of 0.1 mM, and benzamidine derivatives were dissolved in DMSO at a concentration of 0.1 mM. All of them were diluted 1,000 fold with the differentiation media to a final concentration of 0.1 μM, respectively. In this connection, a control group was maintained in 0.1% DMSO.
As the above described, the sample substances and cells, which were diluted to the desired concentrations, were plated in 96-well plate, and co-cultured. On days 3 and 5 of culture, the media were replaced with fresh differentiation media containing the sample substances. On day 7 of culture, TRAP staining was performed to count the mature multinucleated osteoclast that was formed by differentiation. The mature osteoclasts with 6 or more nuclei were counted under a microscope. The results were expressed as a percentage (%) of the number of mature osteoclast observed in each experimental group, when the number of mature osteoclast in the control group (solvent only) was regarded as 100%. The experiment was performed with 4 wells per experimental group (n=4), and the results were expressed as mean value±standard deviation. In addition, the experiment was repeated at least two times, and Student t-test was applied for significant difference between experimental groups.
The experiment was performed in the same manner as in Example 8 to evaluate the effect of individual or combination treatment of risedronic acid and benzamidine derivatives of Formula 1 on osteoclast differentiation, except using 0.1 μM risedronic acid instead of 0.1 μM alendronic acid. […]

[1] = Combination treatment (alendronic acid + compounds)
[2] = Combination treatment (risedronic acid + compounds)

SMILES: Cc1nc(-c2ccc(OCCCCCOc3ccc(C(=N)NO)cc3)cc2)cs1 [Compound 3, N-hydroxy-4-{5-[4-(2-methyl-1,3-thiazol-4-yl)phenoxy]pentyloxy}-benzamidine]
- % number of osteoclast (vs. solvent control group) [1]: 40 ± 4.6^b %
- % number of osteoclast (vs. solvent control group) [2]: 33 ± 6.8^c %
- activity at 0.1 µM: 52 ± 8.9%

SMILES: N=C(NO)c1ccc(OCCCCCOc2ccc(-c3csc(-c4cccnc4)n3)cc2)cc1 [Compound 7, N-hydroxy-4-{5-[4-(2-pyridine-3-yl-1,3-thiazol-4-yl)phenoxy]pentyloxy}-benzamidine]
- % number of osteoclast (vs. solvent control group) [1]: 35 ± 7.1^b %
- % number of osteoclast (vs. solvent control group) [2]: 34 ± 10.1^c %
- activity at 0.1 µM: 52 ± 4.8%

SMILES: N=C(NO)c1ccc(OCCCCCOc2ccc(-c3csc(C4CCCCC4)n3)cc2)cc1 [Compound 8, N-hydroxy-4-{5-[4-(2-cyclohexyl-1,3-thiazol-4-yl)phenoxy]pentyloxy}-benzamidine]
- % number of osteoclast (vs. solvent control group) [1]: 22 ± 3.4^ab %
- % number of osteoclast (vs. solvent control group) [2]: 27 ± 3.8^ac %
- activity at 0.1 µM: 65 ± 10.4%

SMILES: CCCCCc1nc(-c2ccc(OCCCCCOc3ccc(C(=N)NO)cc3)cc2)cs1 [Compound 9, N-hydroxy-4-{5-[4-(2-pentyl-1,3-thiazol-4-yl)phenoxy]pentyloxy}-benzamidine]
- % number of osteoclast (vs. solvent control group) [1]: 52 ± 15.8%
- % number of osteoclast (vs. solvent control group) [2]: 43 ± 2.6^ac %
- activity at 0.1 µM: 64 ± 3.4%

SMILES: CCCCCc1nc(-c2ccc(OCCCCCOc3ccc(C(=N)NO)cc3)cc2)c(C)s1 [Compound 15, N-hydroxy-4-{5-[4-(5-methyl-2-pentyl-1,3-thiazol-4-yl)phenoxy]pentyloxy}-benzamidine]
- % number of osteoclast (vs. solvent control group) [1]: 43 ± 11.4%
- % number of osteoclast (vs. solvent control group) [2]: 45 ± 9.2^ac %
- activity at 0.1 µM: 69 ± 5.5%

SMILES: CCc1sc(-c2cccnc2)nc1-c1ccc(OCCCCCOc2ccc(C(=N)NO)cc2)cc1 [Compound 21, N-hydroxy-4-{5-[4-(5-ethyl-2-pyridin-3-yl-1,3-thiazol-4-yl)phenoxy]pentyloxy}-benzamidine]
- % number of osteoclast (vs. solvent control group) [1]: 22 ± 7.1^ab %
- % number of osteoclast (vs. solvent control group) [2]: 47 ± 10.1%
- activity at 0.1 µM: 52 ± 10.4%

SMILES: CCCCc1sc(C(C)(C)C)nc1-c1ccc(OCCCCCOc2ccc(C(=N)NO)cc2)cc1 [Compound 37, N-hydroxy-4-{5-[4-(5-butyl-2-t-butyl-1,3-thiazol-4-yl)phenoxy]pentyloxy}-benzamidine]
- % number of osteoclast (vs. solvent control group) [1]: 30 ± 9.9^b %
- % number of osteoclast (vs. solvent control group) [2]: 36 ± 14.4^c %
- activity at 0.1 µM: 68 ± 18.9%

SMILES: N=C(NO)c1ccc(OCCCCCOc2ccc(-c3nc(-c4ccccc4)sc3Cc3ccccc3)cc2)cc1 [Compound 40, N-hydroxy-4-{5-[4-(5-benzyl-2-phenyl-1,3-thiazol-4-yl)phenoxy]pentyloxy}-benzamidine]
- % number of osteoclast (vs. solvent control group) [1]: 28 ± 4.1^ab %
- % number of osteoclast (vs. solvent control group) [2]: 20 ± 3.4^ac %
- activity at 0.1 µM: 66 ± 7.1%

SMILES: N=C(NO)c1ccc(OCCCCCOc2ccc(-c3nc(-c4cccnc4)sc3Cc3ccccc3)cc2)cc1 [Compound 41, N-hydroxy-4-{5-[4-(5-benzyl-2-pyridin-3-yl-1,3-thiazol-4-yl)phenoxy]pentyloxy}-benzamidine]
- % number of osteoclast (vs. solvent control group) [1]: 29 ± 5.0^b %
- % number of osteoclast (vs. solvent control group) [2]: 31 ± 2.6^c %
- activity at 0.1 µM: 31 ± 9.4%

SMILES: Cc1nc(-c2ccc(OCCCCCOc3ccc(C(=N)NO)cc3)cc2)c(CCCl)s1 [Compound 42, N-hydroxy-4-{5-[4-(5-(2-chloro-ethyl)-2-methyl-1,3-thiazol-4-yl)phenoxy]pentyloxy}-benzamidine]
- % number of osteoclast (vs. solvent control group) [1]: 33 ± 1.9^ab %
- % number of osteoclast (vs. solvent control group) [2]: 32 ± 8.0^ac %
- activity at 0.1 µM: 69 ± 11.4%

SMILES: Cc1nc(-c2ccc(OCCCCCOc3ccc(C(=N)NO)cc3)cc2)c(C2CCCC2)s1 [Compound 43, N-hydroxy-4-{5-[4-(5-cyclopentyl-2-methyl-1,3-thiazol-4-yl)phenoxy]pentyloxy}-benzamidine]
- % number of osteoclast (vs. solvent control group) [1]: 32 ± 6.6^ab %
- % number of osteoclast (vs. solvent control group) [2]: 40 ± 7.8^c %
- activity at 0.1 µM: 74 ± 14.6%

SMILES: Cc1nc(-c2ccc(OCCCCCOc3ccc(C(=N)NO)cc3)cc2)c(CC2CCCC2)s1 [Compound 45, N-hydroxy-4-{5-[4-(5-cyclopentylmethyl-2-methyl-1,3-thiazol-4-yl)phenoxy]pentyloxy}-benzamidine]
- % number of osteoclast (vs. solvent control group) [1]: 49 ± 8.1^ab %
- % number of osteoclast (vs. solvent control group) [2]: 38 ± 11.9^ac %
- activity at 0.1 µM: 72 ± 4.6%

SMILES: CCc1nc(-c2ccc(OCCCCCOc3ccc(C(=N)NO)cc3)cc2)c(CC2CCCC2)s1 [Compound 46, N-hydroxy-4-{5-[4-(5-cyclopentylmethyl-2-ethyl-1,3-thiazol-4-yl)phenoxy]pentyloxy}-benzamidine]
- % number of osteoclast (vs. solvent control group) [1]: 36 ± 5.1^ab %
- % number of osteoclast (vs. solvent control group) [2]: 31 ± 8.5^ac %
- activity at 0.1 µM: 71 ± 9.4%

SMILES: CC(C)c1nc(-c2ccc(OCCCCCOc3ccc(C(=N)NO)cc3)cc2)c(CC2CCCC2)s1 [Compound 47, N-hydroxy-4-{5-[4-(5-cyclopentylmethyl-2-isopropyl-1,3-thiazol-4-yl)phenoxy]pentyloxy}-benzamidine]
- % number of osteoclast (vs. solvent control group) [1]: 42 ± 4.6^b %
- % number of osteoclast (vs. solvent control group) [2]: 32 ± 3.0^ac %
- activity at 0.1 µM: 57 ± 7.9%

SMILES: Cc1nc(-c2ccc(OCCCCCOc3ccc(C(=N)N)cc3)cc2)c(C)s1 [Compound 54, 4-{5-[4-(2,5-dimethyl-1,3-thiazol-4-yl)phenoxy]pentyloxy}-benzamidine]
- % number of osteoclast (vs. solvent control group) [1]: 20 ± 4.1^ab %
- % number of osteoclast (vs. solvent control group) [2]: 19 ± 4.9^ac %
- activity at 0.1 µM: 41 ± 8.3%

SMILES: Cc1sc(NC(=N)N)nc1-c1ccc(OCCCCCOc2ccc(C(=N)NO)cc2)cc1 [Compound 59, N-hydroxy-4-{5-[4-(2-guanidino-5-methyl-1,3-thiazol-4-yl)phenoxy]pentyloxy}-benzamidine]
- % number of osteoclast (vs. solvent control group) [1]: 34 ± 2.2^ab %
- % number of osteoclast (vs. solvent control group) [2]: 33 ± 5.1^ac %
- activity at 0.1 µM: 55 ± 6.5%

SMILES: N=C(NO)c1ccc(OCCCCCOc2ccc(-c3nc(N)sc3CC3CCCC3)cc2)cc1 [Compound 67, N-hydroxy-4-{5-[4-(2-amino-5-cyclopentylmethyl-1,3-thiazol-4-yl)phenoxy]pentyloxy}-benzamidine]
- % number of osteoclast (vs. solvent control group) [1]: 53 ± 6.4^b %
- % number of osteoclast (vs. solvent control group) [2]: 36 ± 1.7^ac %
- activity at 0.1 µM: 74 ± 11.7%
